Results on four compounds are retold here after patent publication US20100120775A1, “Farnesoid X Receptor Agonists” (SMITHKLINE BEECHAM CORPORATION, priority 2006, published 2010).

Test [1] addresses T1, Human FXRα Ligand Binding Domain (Homo sapiens, UniProt Q96RI1).
T1 construct: polyhistidine (pRSET-A vector) (N); made in house; host or cells: E. coli BL21 (DE3), pRSET-A vector
T1 sequence (Q96RI1 237-472 isoform Q96RI1-2): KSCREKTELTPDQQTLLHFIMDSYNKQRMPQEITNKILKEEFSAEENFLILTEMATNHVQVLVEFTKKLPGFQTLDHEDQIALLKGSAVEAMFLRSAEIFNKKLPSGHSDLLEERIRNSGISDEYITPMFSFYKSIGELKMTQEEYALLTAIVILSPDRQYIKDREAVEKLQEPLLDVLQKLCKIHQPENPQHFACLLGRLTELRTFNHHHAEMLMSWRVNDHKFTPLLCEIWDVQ
Briefly: FXR Cofactor Binding Assay (FXR LBD / SRC-1 peptide, time resolved fluorescence). Particulars: FXRα LBD with biotinylated SRC-1 (LCD2, 676-700) peptide, read-out: Activity (pEC50) (converted). The text has this: Determination of a ligand mediated cofactor peptide interaction to quantify ligand binding to the nuclear receptor Farnesoid X Receptor (FXR). The method measures the ability of putative ligands to modulate the interaction between the purified bacterial expressed FXRα ligand binding domain (LBD) and a synthetic biotinylated peptide based on residues 676-700 of steroid receptor coactivator-1 (SRC-1) (LXXLL-containing domain-2 where L is the amino acid leucine and X indicates any other amino acid (LCD2), 676-700). The sequence of the SRC-1 peptide used is as published in Iannone, M. A., et al., 2001 Cytometry 44:326-337 where the N-terminus was biotinylated (B) and the C-terminus was amidated. Detection of the associated complex was measured by time resolved fluorescence (TRF). The purified LBD of FXR was labeled with biotin then mixed with stoichiometric amounts of allophycocyanin (APC) labeled streptavidin (Molecular Probes). The biotinylated peptide was then mixed with a ½ stoichiometric amount of europium labeled streptavidin (Wallac Inc). Each was then blocked with a 5 fold excess of biotin and allowed to equilibrate for 15 min. Equimolar amounts of receptor and peptide were mixed together and were allowed to equilibrate for at least 30 min prior to the addition to either a variable or constant concentrations of the sample for which the affinity is to be determined. After equilibration, the time-resolved fluorescent signal was quantitated using a fluorescent plate reader. The affinity of the test compound was estimated from a plot of fluorescence versus concentration of test compound added.
A basal level of FXR: peptide formation is observed in the absence of added ligand. Ligands that promote the complex formation induce a concentration-dependent increase in time-resolved fluorescent signal. Compounds which bind equally well to both monomeric FXR and to the FXR: peptide complex would be expected to give no change in signal, whereas ligands which bind preferentially to the monomeric receptor would be expected to induce a concentration-dependent decrease in the observed signal.
Human FXRα Ligand Binding Domain (FXRα LBD) was expressed in E. coli strain BL21 (DE3) as an amino-terminal polyhistidine tagged fusion protein. Expression was under the control of an isopropyl-13-D-thiogalactopyranoside (IPTG) inducible T7 promoter. DNA encoding this recombinant protein is subcloned into the pRSET-A expression vector (Invitrogen). The coding sequence of Human FXRα LBD was derived from Genbank accession number U 68233 (amino acids 237 to 472).
Routinely, 30-40 g cell paste (equivalent to 2-3 liters of the fermentation batch) was resuspended in 200-250 mL Tris buffered saline (TBS), pH 7.2 (25 mM Tris-hydroxymethylamino methane (Tris), 150 mM sodium chloride). Cells were lysed by passing 3 times through a French Press and cell debris was removed by centrifugation (30 minutes, 20,000×gravity, 4° C.). The cleared supernatant was filtered through course pre-filters, and TBS, pH 7.2, 500 mM imidazole was added to obtain a final imidazole concentration of 50 mM. This lysate was loaded onto a column (6×8 cm) packed with Sepharose [Ni^|| charged]Chelation resin (Pharmacia) and pre-equilibrated with TBS pH 7.2/50 mM imidazole. After washing to baseline absorbance with equilibration buffer, the column was washed with one column volume of TBS pH 7.2 containing 90 mM imidazole. FXRα LBD was eluted directly with 365 mM imidazole. Column fractions were pooled and dialyzed against TBS, pH 7.2, containing 0.5 mM EDTA and 5 mM DTT. The dialyzed protein sample was concentrated using Centri-prep 10 K (Amicon) and subjected to size exclusion, using a column (3×90 cm) packed with Sepharose S-75 resin (Pharmacia) pre-equilibrated with TBS, pH 7.2, containing 0.5 mM ethylene diamine tetraacetic acid (EDTA) and 5 mM dithiothreitol (DTT). […]

The subject of test [2] is high-fat diet fed obese mice. The experiment in a line: Effects of FXR agonists on diet induced obese mice. The test is classed as in vivo, C57BL mice. Particulars: 10, 30, 100 mg/kg twice a day orally; for body fat mass: QMR; for NEFA / cholesterol / glycerol / insulin / triglyceride: serum. How it is done:
Methods: Male 20 to 25 g C57BL mice (Charles River, Indianapolis, Ind.) were housed at 72° F. and 50% relative humidity with a 12 h light and dark cycle and fed with standard rodent chow (Purina 5001, Harlan Teklad, Indianapolis, Ind.) or a high-fat diet (TD93075, Harlan Teklad, Indianapolis, Ind.) for eight weeks. After three weeks, mice on high-fat diet were randomized to vehicle or treatment groups based on fasting glucose and body weight. Starting from the fifth week, mice were given either vehicle or the compound in Example 1 (10, 30, and 100 mg/kg) or the compound in Example 5 (10, 30, 100 mg/kg) twice a day orally. Mice on the standard rodent chow were also given vehicle as a control. Body composition was measured using the quantitative magnetic resonance (QMR) method before and at the end of compound treatment. […] Serum chemistry levels were measured using the Instrumentation Laboratory Ilab600TM clinical chemistry analyzer (Instrumentation Laboratory, Boston, Mass.).

Test [3] relates to bile duct-ligated mouse. Particulars: bile duct-ligated mouse model; cited from earlier work.
In test [4] the test system is db/db mice. Particulars: cited from earlier work.
Test [5] has as its system ob/ob mice. The conditions noted are these: male ob/ob mice; 30 mg/kg intraperitoneally; cited from earlier work.
The test system of test [6] is mice on a lithogenic diet. Particulars: cited from earlier work.
Test [7] relates to mice on high-fat diet. The conditions noted are these: cited from earlier work.
Test [8] has as its system rodent models of hepatic fibrosis. Particulars: multiple rodent models; cited from earlier work.
Test [9] has as its system hepatic stellate cells (HSC). Particulars: cultured HSCs; cited from earlier work.
Where [10] appears, read: db/db mice, oral 30 mg/kg, bid, serum.
The mark [11] stands for this setting: 100 mg/kg twice a day orally, 100 mg/kg.

Entries after “also recorded” stand apart in the source; their conditions may differ.

For `CC(C)c1onc(-c2c(Cl)cccc2Cl)c1COc1ccc(-c2ccc3cc(C(=O)O)ncc3c2)cc1` [Example 5, 7-[4-({[3-(2,6-Dichlorophenyl)-5-(1-methylethyl)-4-isoxazolyl]methyl}oxy)phenyl]-3-isoquinolinecarboxylic acid], the EC50 in test [1] was 102 to 1000 nM. For the same compound, in test [2], the serum glucose entry is reported as “decreased”, the body fat mass entry is given as “decreased”, the NEFA entry is “decreased” and the cholesterol result is “decreased”. In test [2], the glycerol result is “decreased”, the insulin result is on record as “decreased” and the triglyceride result is reported as “decreased”.

Regarding `CC(C)c1onc(-c2c(Cl)cccc2Cl)c1COc1ccc(/C=C/c2cccc(C(=O)O)c2)c(Cl)c1` [GW4064], in test [3], the bacterial overgrowth entry is “decreased”, the mucosal barrier entry is listed as “improved” and the “translocation of bacteria to mesenteric lymph nodes” value is “decreased”. Besides, in test [4] (db/db mice), the “glycogen storage in the liver” value is “enhanced” and the “insulin signalling in the liver” value is reported as “enhanced”. In addition, in [4] (db/db mice, oral 30 mg/kg, bid), the blood glucose entry was “decreased” and the “serum β-hydroxybutyrate” value is on record as “decreased”. Also, in test [4] (setting [10]), the NEFA result is “decreased”, the total cholesterol entry is recorded as “decreased” and the triglyceride entry is reported as “decreased”. Moreover, in test [4] (diabetic db/db mice), the hyperglycemia result was “significantly improved” and the hyperlipidemia result is given as “significantly improved”. Further, in test [5], the body weight entry is on record as “did not alter”, the fasting blood glucose entry is “no effect”, the food intake entry is listed as “did not alter” and the glucose tolerance entry was “improved”. Further, in test [5], the insulin concentration result was “decreased” and the insulin sensitivity entry is recorded as “enhanced”. For the same compound, in [6], the “formation of cholesterol crystals in the bile” value is on record as “prevented”. In test [7] (setting [11]), the “body weight / high-fat diet induced body weight gain” value was “decrease; also recorded: reduced”, the serum glucose entry is on record as “decreased”, the serum insulin entry is reported as “decreased” and the serum triglyceride result is reported as “decreased”. Moreover, the glucose tolerance result in [7] (100 mg/kg twice a day orally, GTT, 100 mg/kg) is on record as “corrected; also recorded: improve”. The liver triglyceride content entry in [7] (100 mg/kg twice a day orally) was “reduced”. The body fat mass result in [7] is recorded as “decrease”. Moreover, in [7] (serum), the total cholesterol result was “decrease”.

With `CC(C)c1onc(-c2c(Cl)cccc2Cl)c1COc1ccc(-c2ccc3nc(C(=O)O)ccc3c2)cc1` [Example 1, 6-[4-({[3-(2,6-Dichlorophenyl)-5-(1-methylethyl)-4-isoxazolyl]methyl}oxy)phenyl]-2-quinolinecarboxylic Acid], in test [2], the serum glucose result was “decreased”, the body fat mass result is “decreased”, the NEFA entry is reported as “decreased” and the cholesterol result was “decreased”. For the same compound, in [2], the glycerol entry was “decreased”, the insulin entry was “decreased” and the triglyceride entry was “decreased”.

On to `CC[C@H]1[C@@H](O)[C@@H]2[C@H](CC[C@]3(C)[C@@H]([C@H](C)CCC(=O)O)CC[C@@H]23)[C@@]2(C)CC[C@@H](O)C[C@@H]12` [Example 6EtCDCA, 6-ethyl-chenodeoxycholic acid], for which, in test [8], the hepatic fibrosis result is “prevent development and promote resolution”. In test [9], the “expression of α1(I)collagen” value is listed as “decreased” and the “expression of α-smooth muscle actin” value is given as “decreased”.
